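Cultured in 96-well plates, cells were exposed to test compound for 48 hours across five concentrations. At the GI50, growth is halved. Definition used: TGI = concentration required for complete inhibition of growth.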
Legend:
Assay in all cases: NCI-60 cell line screen, 48 h
[1] = system: NCI-H23 lung
[2] = system: RXF 393 renal
[3] = system: M14 melanoma
[4] = system: HL-60(TB) leukemia
[5] = system: 786-0 renal
[6] = system: SK-MEL-5 melanoma
[7] = system: MDA-MB-231 breast
[8] = system: HCT-116 colon
[9] = system: K-562 leukemia
[10] = system: BT-549 breast
[11] = system: NCI-H460 lung
[12] = system: KM12 colon
[13] = system: SF-295 CNS
[14] = system: SNB-19 CNS
[15] = system: MOLT-4 leukemia
[16] = system: SK-MEL-28 melanoma
[17] = system: NCI/ADR-RES ovarian
[18] = system: OVCAR-5 ovarian
[19] = system: SK-MEL-2 melanoma
[20] = system: A549 NSCLC
[21] = system: HOP-62 NSCLC
[22] = system: ACHN renal
[23] = system: HS 578T breast
[24] = system: OVCAR-8 ovarian
[25] = system: MDA-MB-435
[26] = system: SNB-75 CNS
[27] = system: MALME-3M melanoma
[28] = system: HCT-15 colon
[29] = system: UACC-62 melanoma
[30] = system: OVCAR-3 ovarian
[31] = system: SN12C renal
[32] = system: SF-268 CNS
[33] = system: HOP-92 NSCLC
[34] = system: EKVX NSCLC
[35] = system: NCI-H226 lung
[36] = system: TK-10 renal
[37] = system: SW-620 colon
[38] = system: MCF7 breast
[39] = system: RPMI-8226 leukemia
[40] = system: IGROV1 ovarian
[41] = system: T-47D breast
[42] = system: UO-31 renal
[43] = system: COLO 205 colon
[44] = system: SF-539 CNS
[45] = system: NCI-H522 lung
[46] = system: HT29 colon
[47] = system: OVCAR-4 ovarian
[48] = system: A498 renal
[49] = system: UACC-257 melanoma
[50] = system: LOX IMVI melanoma
[51] = system: SR leukemia
[52] = system: PC-3 prostate
[53] = system: HCC-2998 colon
[54] = system: SK-OV-3 ovarian
[55] = system: DU-145 prostate
[56] = system: U251 CNS
[57] = system: CCRF-CEM leukemia

COc1ccc(-c2cc(C(=O)N3N=C(c4ccc(N)cc4)CC3c3ccc(Cl)cc3)c3ccccc3n2)cc1 (centres undefined)
GI50 [1]: 3.14 µM
TGI [1]: > 100 µM
GI50 [2]: 0.698 µM
TGI [2]: 8.22 µM
GI50 [3]: 1.16 µM
TGI [3]: > 100 µM
GI50 [4]: 2.54 µM
TGI [4]: > 100 µM
GI50 [5]: 1.84 µM
TGI [5]: > 100 µM
GI50 [6]: 0.701 µM
TGI [6]: 9.25 µM
GI50 [7]: 3.28 µM
TGI [7]: > 100 µM
GI50 [8]: 1.41 µM
TGI [8]: > 100 µM
GI50 [9]: 1.05 µM
TGI [9]: > 100 µM
GI50 [10]: 2.04 µM
TGI [10]: 73 µM
GI50 [11]: 1.89 µM
TGI [11]: > 100 µM
GI50 [12]: 1.15 µM
TGI [12]: > 100 µM
GI50 [13]: 0.54 µM
TGI [13]: > 100 µM
GI50 [14]: 5.54 µM
TGI [14]: > 100 µM
GI50 [15]: 3.3 µM
TGI [15]: > 100 µM
GI50 [16]: 3.78 µM
TGI [16]: > 100 µM
GI50 [17]: 0.519 µM
TGI [17]: > 100 µM
GI50 [18]: 5.51 µM
TGI [18]: > 100 µM
GI50 [19]: 2.03 µM
TGI [19]: > 100 µM
GI50 [20]: 2.33 µM
TGI [20]: > 100 µM
GI50 [21]: 3.21 µM
TGI [21]: > 100 µM
GI50 [22]: 1.47 µM
TGI [22]: > 100 µM
GI50 [23]: 1.05 µM
TGI [23]: > 100 µM
GI50 [24]: 4.16 µM
TGI [24]: > 100 µM
GI50 [25]: 0.305 µM
TGI [25]: 2.22 µM
GI50 [26]: 0.371 µM
TGI [26]: 8.66 µM
GI50 [27]: > 100 µM
TGI [27]: > 100 µM
GI50 [28]: 1.03 µM
TGI [28]: > 100 µM
GI50 [29]: 0.556 µM
TGI [29]: > 100 µM
GI50 [30]: 0.462 µM
TGI [30]: 8.55 µM
GI50 [31]: 4.27 µM
TGI [31]: > 100 µM
GI50 [32]: 2.19 µM
TGI [32]: > 100 µM
GI50 [33]: 1.92 µM
TGI [33]: > 100 µM
GI50 [34]: 3.78 µM
TGI [34]: > 100 µM
GI50 [35]: 7.54 µM
TGI [35]: > 100 µM
GI50 [36]: 52.3 µM
TGI [36]: > 100 µM
GI50 [37]: 1.24 µM
TGI [37]: > 100 µM
GI50 [38]: 0.442 µM
TGI [38]: > 100 µM
GI50 [39]: 3.86 µM
TGI [39]: > 100 µM
GI50 [40]: 4.98 µM
TGI [40]: > 100 µM
GI50 [41]: 2.71 µM
TGI [41]: > 100 µM
GI50 [42]: 1.55 µM
TGI [42]: > 100 µM
GI50 [43]: 1.99 µM
TGI [43]: 6.58 µM
GI50 [44]: 1.41 µM
TGI [44]: > 100 µM
GI50 [45]: 0.307 µM
TGI [45]: 1.8 µM
GI50 [46]: 1.13 µM
TGI [46]: > 100 µM
GI50 [47]: 1.82 µM
TGI [47]: > 100 µM
GI50 [48]: 0.375 µM
TGI [48]: 0.914 µM
GI50 [49]: > 100 µM
TGI [49]: > 100 µM
GI50 [50]: 1.56 µM
TGI [50]: > 100 µM
GI50 [51]: 0.595 µM
TGI [51]: > 100 µM
GI50 [52]: 2.03 µM
TGI [52]: > 100 µM
GI50 [53]: 3.4 µM
TGI [53]: > 100 µM
GI50 [54]: 3.32 µM
TGI [54]: > 100 µM
GI50 [55]: 3.16 µM
TGI [55]: > 100 µM
GI50 [56]: 2.18 µM
TGI [56]: > 100 µM
GI50 [57]: 5.84 µM
TGI [57]: > 100 µM

Reference: PubChem BioAssay (NCI)
